pKd: −log10 of the molar value.
Target: Macrophage metalloelastase (Homo sapiens, UniProt P39900)
Assay: Binding affinity to MMP12 (unknown origin)

Sequence of Macrophage metalloelastase (P39900 whole entry): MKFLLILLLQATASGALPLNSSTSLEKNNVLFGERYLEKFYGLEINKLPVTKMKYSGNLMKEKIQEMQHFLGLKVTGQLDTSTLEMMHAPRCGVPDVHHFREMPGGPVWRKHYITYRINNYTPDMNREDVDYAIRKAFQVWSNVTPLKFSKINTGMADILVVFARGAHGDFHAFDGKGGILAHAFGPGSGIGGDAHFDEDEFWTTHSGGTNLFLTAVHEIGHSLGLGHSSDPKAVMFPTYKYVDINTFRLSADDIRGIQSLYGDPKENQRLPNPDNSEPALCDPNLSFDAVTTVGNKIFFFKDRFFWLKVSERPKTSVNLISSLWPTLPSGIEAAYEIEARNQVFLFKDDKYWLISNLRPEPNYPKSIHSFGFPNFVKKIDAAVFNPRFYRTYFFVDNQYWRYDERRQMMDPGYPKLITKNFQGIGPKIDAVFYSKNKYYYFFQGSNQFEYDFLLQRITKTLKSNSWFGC

| SMILES | pKd |
| --- | --- |
| O=C(CNS(=O)(=O)c1ccccc1)NO | 7.21 |
| CC(=O)NO [ACETOHYDROXAMIC ACID] | 2.21 |

Source: ChEMBL document CHEMBL3779821, “On the enthalpic preference of fragment binding” (Medchemcomm, 2016)
